{
  "source": "patent US8895756B2",
  "about": "“Bendamustine pharmaceutical compositions” (priority 2005, dated 2014)",
  "key": {"physchem": {"assay": "physchem", "settings": "5 °C"}, "[1]": {"settings": "reconstituted with 40 mL Sterile Water for Injection, cited from earlier work"}, "[2]": {"settings": "for Bendamustine solubility: 5° C."}, "[3]": {"settings": "10% (v/v) methanol in water with 25.5 mg/mL mannitol, aqueous with cosolvent or surfactant or cyclodextrin"}, "[4]": {"settings": "alcohol/water solution with mannitol 25.5 mg/mL, aqueous with cosolvent or surfactant or cyclodextrin"}, "[5]": {"settings": "alcohol/water solution with mannitol 25.5 mg/mL, aqueous with cosolvent or surfactant or cyclodextrin, thermodynamic from solid"}, "[6]": {"settings": "alcohol/water solution with mannitol, aqueous with cosolvent or surfactant or cyclodextrin"}, "[7]": {"settings": "alcohol/water solution with mannitol, aqueous with cosolvent or surfactant or cyclodextrin, thermodynamic from solid"}, "[8]": {"settings": "alcohol/water solution with mannitol, water, thermodynamic from solid"}, "[9]": {"settings": "water with mannitol 25.5 mg/mL, water, thermodynamic from solid"}},
  "note": "Read-outs that look alike come from different tables or passages of the source.",
  "data": [
    {"smiles": "Cl.Cn1c(CCCC(=O)O)nc2cc(N(CCCl)CCCl)ccc21", "note": "[bendamustine, 4-{5-[Bis(2-chloroethyl)amino]-1-methyl-2-benzimidazolyl}butyric acid]", "values": [
      {"measurement": "solubility at 0 h", "setting": "physchem; [3]", "value": "> 15", "unit": "mg/mL"},
      {"measurement": "solubility at 3 h", "setting": "physchem; [3]", "value": "> 15", "unit": "mg/mL"},
      {"measurement": "solubility at 6 h", "setting": "physchem; [3]", "value": "> 15", "unit": "mg/mL"},
      {"measurement": "solubility at 0 h", "setting": "physchem; [4]", "value": "> 15", "unit": "mg/mL"},
      {"measurement": "solubility at 3 h", "setting": "physchem; [4]", "value": "> 15", "unit": "mg/mL"},
      {"measurement": "solubility at 6 h", "setting": "physchem; [4]", "value": "> 15", "unit": "mg/mL"},
      {"measurement": "solubility at 24 h", "setting": "physchem; [4]", "value": "> 15", "unit": "mg/mL"},
      {"measurement": "solubility at 0 h", "setting": "physchem; [5]", "value": "> 15", "unit": "mg/mL"},
      {"measurement": "solubility at 3 h", "setting": "physchem; [5]", "value": "> 15", "unit": "mg/mL"},
      {"measurement": "solubility at 6 h", "setting": "physchem; [5]", "value": "> 15", "unit": "mg/mL"},
      {"measurement": "solubility at 24 h", "setting": "physchem; [5]", "value": "> 15", "unit": "mg/mL"},
      {"measurement": "solubility at 0 h", "setting": "physchem; [6]", "value": "> 15", "unit": "mg/mL"},
      {"measurement": "solubility at 3 h", "setting": "physchem; [6]", "value": "> 15", "unit": "mg/mL"},
      {"measurement": "solubility at 6 h", "setting": "physchem; [6]", "value": "> 15", "unit": "mg/mL"},
      {"measurement": "solubility at 24 h", "setting": "physchem; [6]", "value": "> 15", "unit": "mg/mL"},
      {"measurement": "solubility at 0 h", "setting": "physchem; [7]", "value": "> 15", "unit": "mg/mL"},
      {"measurement": "solubility at 3 h", "setting": "physchem; [7]", "value": "> 15", "unit": "mg/mL"},
      {"measurement": "solubility at 6 h", "setting": "physchem; [7]", "value": "> 15", "unit": "mg/mL"},
      {"measurement": "solubility at 24 h", "setting": "physchem; [7]", "value": "> 15", "unit": "mg/mL"},
      {"measurement": "solubility at 0 h", "setting": "physchem; [8]", "value": "> 15", "unit": "mg/mL"},
      {"measurement": "solubility at 3 h", "setting": "physchem; [8]", "value": "> 15", "unit": "mg/mL"},
      {"measurement": "solubility at 0 h", "setting": "physchem; [9]", "value": "> 15", "unit": "mg/mL"},
      {"measurement": "solubility at 3 h", "setting": "physchem; [9]", "value": "> 15", "unit": "mg/mL"},
      {"measurement": "saturation limit", "setting": "20% (v/v) TBA, 5° C.", "value": 17.2, "unit": "mg/mL"},
      {"measurement": "concentration of saturated solution", "setting": "30% TBA/water, 0° C.", "value": 18000, "unit": "µg/mL"},
      {"measurement": "stable period after reconstitution", "setting": "[1]; room temperature storage", "value": 7, "unit": "h"},
      {"measurement": "stable period after reconstitution", "setting": "[1]; storage at 2-8° C.", "value": 140, "unit": "h"},
      {"measurement": "Bendamustine solubility", "setting": "[2]; 0% (Water Only), 6 Hours", "value": "Precipitate"},
      {"measurement": "Bendamustine solubility", "setting": "[2]; 0% (Water Only), 24 Hours", "value": "Precipitate"},
      {"measurement": "precipitation", "setting": "[2]; 15 mg/mL bendamustine, 5% and 10% ethanol and TBA without mannitol, over 24 hours", "value": "did not precipitate"},
      {"measurement": "Bendamustine solubility", "setting": "[2]; 1.9% Ethanol (v/v), 6 Hours", "value": "Precipitate"},
      {"measurement": "Bendamustine solubility", "setting": "[2]; 1.9% Ethanol (v/v), 24 Hours", "value": "Precipitate"},
      {"measurement": "Bendamustine solubility", "setting": "[2]; 5% Ethanol (v/v), 6 Hours", "value": "Precipitate"},
      {"measurement": "Bendamustine solubility", "setting": "[2]; 5% Ethanol (v/v), 24 Hours", "value": "Precipitate"},
      {"measurement": "Bendamustine solubility", "setting": "[2]; 5% Iso-propanol (v/v), 3 Hours", "value": "Precipitate"},
      {"measurement": "Bendamustine solubility", "setting": "[2]; 5% Iso-propanol (v/v), 6 Hours", "value": "Precipitate"},
      {"measurement": "Bendamustine solubility", "setting": "[2]; 5% Iso-propanol (v/v), 24 Hours", "value": "Precipitate"},
      {"measurement": "Bendamustine solubility", "setting": "[2]; 5% Methanol (v/v), 6 Hours", "value": "Precipitate"},
      {"measurement": "Bendamustine solubility", "setting": "[2]; 5% Methanol (v/v), 24 Hours", "value": "Precipitate"},
      {"measurement": "Bendamustine solubility", "setting": "[2]; 5% Tert-Butanol (v/v), 24 Hours", "value": "Precipitate"},
      {"measurement": "Bendamustine solubility", "setting": "[2]; 5% n-Propanol (v/v), 24 Hours", "value": "Precipitate"},
      {"measurement": "Bendamustine solubility", "setting": "[2]; 10% Ethanol (v/v), 24 Hours", "value": "Precipitate"},
      {"measurement": "Bendamustine solubility", "setting": "[2]; 10% Methanol (v/v), 24 Hours", "value": "Precipitate"},
      {"measurement": "Bendamustine solubility", "setting": "[2]; 10% Tert-Butanol (v/v), 24 Hours", "value": "Precipitate"},
      {"measurement": "Bendamustine solubility", "setting": "[2]; 20% Methanol (v/v), 24 Hours", "value": "Precipitate"},
      {"measurement": "Bendamustine solubility", "setting": "[2]; 20% n-Butanol (v/v), 3 Hours", "value": 2, "unit": "layers"},
      {"measurement": "Bendamustine solubility", "setting": "[2]; 20% n-Butanol (v/v), 6 Hours", "value": 2, "unit": "layers"},
      {"measurement": "Bendamustine solubility", "setting": "[2]; 20% n-Butanol (v/v), 24 Hours", "value": 2, "unit": "layers"},
      {"measurement": "Bendamustine solubility", "setting": "[2]; 20% n-Butanol (v/v), Zero Time", "value": 2, "unit": "layers"},
      {"measurement": "Bendamustine solubility", "setting": "[2]; 30% n-Butanol (v/v), 3 Hours", "value": 2, "unit": "layers"},
      {"measurement": "Bendamustine solubility", "setting": "[2]; 30% n-Butanol (v/v), 6 Hours", "value": 2, "unit": "layers"},
      {"measurement": "Bendamustine solubility", "setting": "[2]; 30% n-Butanol (v/v), 24 Hours", "value": 2, "unit": "layers"},
      {"measurement": "Bendamustine solubility", "setting": "[2]; 30% n-Butanol (v/v), Zero Time", "value": 2, "unit": "layers"}
    ]}
  ]
}
